Measurements taken from patent US20250195536A1, “BICYCLOOCTANE KRAS INHIBITORS” (Incyte Corporation, priority 2023, published 2025).

Experiments:
KRAS G12D = KRAS G12D (Homo sapiens, UniProt P01116, G12D); experiment: GDP-GTP exchange assay (KRAS G12D); assay type: biochemical; details: bodipy-GDP/GppNHp exchange with SOS1; 4 h pre-incubation, 2 h reaction;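 further: one dagger IC50 up to 100 nM and two daggers above 100 nM up to 1 μM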
How it was run: (§1)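 Bodipy-GDP-loaded KRAS (2.5 nM final) was pre-incubated 4 h at r.t. with inhibitor in Hepes pH 7.5 buffer with MgCl2, then exchange started with GppNHp (500 μM) and SOS1 (150 nM) final. Fluorescence (ex 485/em 520 nm) read after 2 h for G12D, 3 h for G12V; IC50 from four-parameter logistic fit.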

KRAS G12V = KRAS G12V (Homo sapiens, UniProt P01116, G12V); experiment: GDP-GTP exchange assay (KRAS G12V); assay type: biochemical; details: bodipy-GDP/GppNHp exchange with SOS1; 3 h incubation after GppNHp-SOS1;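 further: one dagger IC50 up to 100 nM and two daggers above 100 nM up to 1 μM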
Sequence of KRAS G12V (P01116 1-188 isoform P01116-2 G12V): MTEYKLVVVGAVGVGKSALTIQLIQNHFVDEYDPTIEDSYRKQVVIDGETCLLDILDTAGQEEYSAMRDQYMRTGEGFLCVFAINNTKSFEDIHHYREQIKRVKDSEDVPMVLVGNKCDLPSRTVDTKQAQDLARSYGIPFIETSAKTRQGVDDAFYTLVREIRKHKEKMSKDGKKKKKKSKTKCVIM
How it was run: as §1

[1] = Caco2 assay (permeability, Papp A-B); assay type: in vitro ADME; details: human, Caco-2, absorptive direction (A-B), 50 μM test compound, 4% BSA in receiver
How it was run: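 Caco-2 monolayers, 22-25 days on Transwells, TEER 300 Ω·cm^2, dosed apically with 50 μM compound in HBSS; basolateral HBSS with 4% BSA. 120 min at 37 °C, samples quantified by LCMS; Papp (A-B) from receiver-side cumulative flux slope, donor volume, surface area and initial donor amount.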

Sequence of KRAS G12D (P01116 1-188 isoform P01116-2 G12D): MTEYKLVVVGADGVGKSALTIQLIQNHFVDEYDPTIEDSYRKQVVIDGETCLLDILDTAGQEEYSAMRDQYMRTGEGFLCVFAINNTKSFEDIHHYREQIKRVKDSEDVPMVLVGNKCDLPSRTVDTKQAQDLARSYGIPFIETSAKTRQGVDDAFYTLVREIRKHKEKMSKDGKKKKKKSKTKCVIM

SMILES | G12D_exchange (KRAS_G12D exchange assay IC50) (KRAS G12D) | G12V_exchange (KRAS_G12V exchange assay IC50) (KRAS G12V) | Papp A→B at 120 min, 50 μM [1]
Cc1ncnc(N2C[C@@H]3C[C@H](C2)N(C(=O)C2CC2)[C@H]3c2cc3c(C)nc4c(F)c(-c5cccc(Cl)c5Cl)c(CCC#N)cc4c3n2[C@H]2[C@H]3CN[C@@H]2C3)c1F (atropisomer, axis not shown; (Ra)) [Example 31, 3-((Ra)-1-((1R,4R,5S)-2-Azabicyclo[2.1.1]hexan-5-yl)-2-((1 S,5R,7R)-6-(cyclopropanecarbonyl)-3-(5-fluoro-6-methylpyrimidin-4-yl)-3,6-diazabicyclo[3.2.1]octan-7-yl)-7-(2,3-dichlorophenyl)-6-fluoro-4-methyl-1H-pyrrolo[3,2-c]quinolin-8-yl)propanenitrile] | † | † | ≤ 0.5 ×10⁻⁶ cm/s
Cc1nc2c(F)c(-c3cccc(Cl)c3Cl)c(CCC#N)cc2c2c1cc([C@H]1[C@H]3C[C@H](CN(c4ncc(C(C)C)s4)C3)N1C(=O)C1CC1)n2[C@H]1[C@H]2CN[C@@H]1C2 (atropisomer, axis not shown; (Ra)) [Example 32, 3-((Ra)-1-((1R,4R,5S)-2-Azabicyclo[2.1.1]hexan-5-yl)-2-((1 S,5R,7R)-6-(cyclopropanecarbonyl)-3-(5-isopropylthiazol-2-yl)-3,6-diazabicyclo[3.2.1]octan-7-yl)-7-(2,3-dichlorophenyl)-6-fluoro-4-methyl-1H-pyrrolo[3,2-c]quinolin-8-yl)propanenitrile] | † | † | > 1 ×10⁻⁶ cm/s
Cc1nc2c(F)c(-c3cccc(Cl)c3Cl)c(CCC#N)cc2c2c1cc([C@H]1[C@H]3C[C@H](CN(c4ncccn4)C3)N1C(=O)C1CC1)n2[C@H]1[C@H]2CN[C@@H]1C2 (atropisomer, axis not shown; (Ra)) [Example 33, 3-((Ra)-1-((1R,4R,5S)-2-azabicyclo[2.1.1]hexan-5-yl)-2-((1S,5R,7R)-6-(cyclopropanecarbonyl)-3-(pyrimidin-2-yl)-3,6-diazabicyclo[3.2.1]octan-7-yl)-7-(2,3-dichlorophenyl)-6-fluoro-4-methyl-1H-pyrrolo[3,2-c]quinolin-8-yl)propanenitrile] | † | † | ≤ 0.5 ×10⁻⁶ cm/s
Cc1nc2c(F)c(-c3cccc(Cl)c3Cl)c(CCC#N)cc2c2c1cc([C@H]1[C@H]3C[C@H](CN(c4ccn(C)c(=O)c4)C3)N1C(=O)C1CC1)n2[C@H]1[C@H]2CN[C@@H]1C2 (atropisomer, axis not shown; (Ra)) [Example 35, 3-((Ra)-1-((1R,4R,5S)-2-azabicyclo[2.1.1]hexan-5-yl)-2-((1S,5R,7R)-6-(cyclopropanecarbonyl)-3-(1-methyl-2-oxo-1,2-dihydropyridin-4-yl)-3,6-diazabicyclo[3.2.1]octan-7-yl)-7-(2,3-dichlorophenyl)-6-fluoro-4-methyl-1H-pyrrolo[3,2-c]quinolin-8-yl)propanenitrile] | † | † | ≤ 0.5 ×10⁻⁶ cm/s
Cc1nc2c(F)c(-c3cccc(Cl)c3Cl)c(CCC#N)cc2c2c1cc([C@H]1[C@H]3C[C@H](CN(c4cnccn4)C3)N1C(=O)C1CC1)n2[C@H]1[C@H]2CN[C@@H]1C2 (atropisomer, axis not shown; (Ra)) [Example 40, 3-((Ra)-1-((1R,4R,5S)-2-azabicyclo[2.1.1]hexan-5-yl)-2-((1S,5R,7R)-6-(cyclopropanecarbonyl)-3-(pyrazin-2-yl)-3,6-diazabicyclo[3.2.1]octan-7-yl)-7-(2,3-dichlorophenyl)-6-fluoro-4-methyl-1H-pyrrolo[3,2-c]quinolin-8-yl)propanenitrile] | † | † | ≤ 0.5 ×10⁻⁶ cm/s

The next lines start with the values.

G12D_exchange (KRAS_G12D exchange assay IC50) (KRAS G12D) | G12V_exchange (KRAS_G12V exchange assay IC50) (KRAS G12V) | Papp A→B at 120 min, 50 μM [1] | SMILES
† | † | ≤ 0.5 ×10⁻⁶ cm/s | Cc1nc2c(F)c(-c3cccc(Cl)c3Cl)c(CCC#N)cc2c2c1cc([C@H]1[C@H]3C[C@H](CN(c4ccc(C(F)(F)F)nn4)C3)N1C(=O)C1CC1)n2[C@H]1[C@H]2CN[C@@H]1C2 (atropisomer, axis not shown; (Ra)) [Example 34, 3-((Ra)-1-((1R,4R,5S)-2-azabicyclo[2.1.1]hexan-5-yl)-2-((1S,5R,7R)-6-(cyclopropanecarbonyl)-3-(6-(trifluoromethyl)pyridazin-3-yl)-3,6-diazabicyclo[3.2.1]octan-7-yl)-7-(2,3-dichlorophenyl)-6-fluoro-4-methyl-1H-pyrrolo[3,2-c]quinolin-8-yl)propanenitrile]
† | † | ≤ 0.5 ×10⁻⁶ cm/s | Cc1nc2c(F)c(-c3cccc(Cl)c3Cl)c(CCC#N)cc2c2c1cc([C@H]1[C@H]3C[C@H](CN(c4ccccn4)C3)N1C(=O)C1CC1)n2[C@H]1[C@H]2CN[C@@H]1C2 (atropisomer, axis not shown; (Ra)) [Example 36, 3-((Ra)-1-((1R,4R,5S)-2-azabicyclo[2.1.1]hexan-5-yl)-2-((1S,5R,7R)-6-(cyclopropanecarbonyl)-3-(pyridin-2-yl)-3,6-diazabicyclo[3.2.1]octan-7-yl)-7-(2,3-dichlorophenyl)-6-fluoro-4-methyl-1H-pyrrolo[3,2-c]quinolin-8-yl)propanenitrile]
† | † | ≤ 0.5 ×10⁻⁶ cm/s | Cc1nc2c(F)c(-c3cccc(Cl)c3Cl)c(CCC#N)cc2c2c1cc([C@H]1[C@H]3C[C@H](CN(c4ccnc(C(F)(F)F)c4)C3)N1C(=O)C1CC1)n2[C@H]1[C@H]2CN[C@@H]1C2 (atropisomer, axis not shown; (Ra)) [Example 38, 3-((Ra)-1-((1R,4R,5S)-2-azabicyclo[2.1.1]hexan-5-yl)-2-((1S,5R,7R)-6-(cyclopropanecarbonyl)-3-(2-(trifluoromethyl)pyridin-4-yl)-3,6-diazabicyclo[3.2.1]octan-7-yl)-7-(2,3-dichlorophenyl)-6-fluoro-4-methyl-1H-pyrrolo[3,2-c]quinolin-8-yl)propanenitrile]
† | † | ≤ 0.5 ×10⁻⁶ cm/s | Cc1nc2c(F)c(-c3cccc(Cl)c3Cl)c(CCC#N)cc2c2c1cc([C@H]1[C@H]3C[C@H](CN(c4cc(C(F)(F)F)ccn4)C3)N1C(=O)C1CC1)n2[C@H]1[C@H]2CN[C@@H]1C2 (atropisomer, axis not shown; (Ra)) [Example 39, 3-((Ra)-1-((1R,4R,5S)-2-azabicyclo[2.1.1]hexan-5-yl)-2-((1S,5R,7R)-6-(cyclopropanecarbonyl)-3-(4-(trifluoromethyl)pyridin-2-yl)-3,6-diazabicyclo[3.2.1]octan-7-yl)-7-(2,3-dichlorophenyl)-6-fluoro-4-methyl-1H-pyrrolo[3,2-c]quinolin-8-yl)propanenitrile]
